Converted amounts (≈) assume the structure as drawn.
Experiments:
Assay in all cases: In vitro antibacterial MIC, agar plate dilution
Format in all cases: cell-based
[1] = tested on: Serratia marcescens CMC 83-74; conditions: CMC8374, Mueller-Hinton agar, 10^4 CFU, 18 hours, 35° C.
Protocol: (§1) The in vitro antimicrobial spectrum of the compounds of this invention were determined by the agar plate dilution method with Mueller-Hinton agar and an inoculum of each test organism of approximately 10^4 colony forming units delivered by the Steers replicating device. The minimal inhibitory concentration (MIC) in mcg/ml is defined as the lowest concentration of test compound that inhibited visible growth after 18 hours incubation at 35° C. Results are given in Table I, with the test compounds identified by the number of their hereinafter described examples

[2] = tested on: Staphylococcus faecalis VGH 84-69; conditions: VGH8469, Mueller-Hinton agar, 10^4 CFU, 18 hours, 35° C.
Protocol: as §1

[3] = tested on: Staphylococcus aureus ATCC 29213; conditions: Staphylococcus aureus, ATCC29213, 18 h, Table I, Mueller-Hinton agar, 10^4 CFU, 18 hours, 35° C., read-out: MIC
Protocol: as §1

[4] = tested on: Morganella morganii MOR 84-45; conditions: MOR8445, Mueller-Hinton agar, 10^4 CFU, 18 hours, 35° C.
Protocol: as §1

[5] = tested on: Staphylococcus aureus CMC 83-131; conditions: CMC83131, Mueller-Hinton agar, 10^4 CFU, 18 hours, 35° C.
Protocol: as §1

[6] = tested on: Pseudomonas aeruginosa VGH 84-16; conditions: VGH8416, Mueller-Hinton agar, 10^4 CFU, 18 hours, 35° C.
Protocol: as §1

[7] = tested on: Escherichia coli VGH 84-19; conditions: VGH8419, Mueller-Hinton agar, 10^4 CFU, 18 hours, 35° C.
Protocol: as §1

[8] = tested on: Proteus rettgeri IO 83-21; conditions: Providencia rettgeri, IO8321, Mueller-Hinton agar, 10^4 CFU, 18 hours, 35° C.
Protocol: as §1

[9] = tested on: Klebsiella neumoniae IO 83-5; conditions: IO835, Mueller-Hinton agar, 10^4 CFU, 18 hours, 35° C.
Protocol: as §1

[10] = tested on: Serratia marcescens IO 83-63; conditions: IO8363, Mueller-Hinton agar, 10^4 CFU, 18 hours, 35° C.
Protocol: as §1

[11] = tested on: Staphylococcus aureus VGH 84-47; conditions: VGH8447, Mueller-Hinton agar, 10^4 CFU, 18 hours, 35° C.
Protocol: as §1

[12] = tested on: Serratia marcescens MOR 84-41; conditions: MOR8441, Mueller-Hinton agar, 10^4 CFU, 18 hours, 35° C.
Protocol: as §1

[13] = tested on: Escherichia coli CMC 84-50; conditions: CMC8450, Mueller-Hinton agar, 10^4 CFU, 18 hours, 35° C.
Protocol: as §1

[14] = tested on: Staphylococcus faecalis CMC 83-120; conditions: CMC83120, Mueller-Hinton agar, 10^4 CFU, 18 hours, 35° C.
Protocol: as §1

[15] = tested on: Enterobacter cloacae K 84-10; conditions: K8410, Mueller-Hinton agar, 10^4 CFU, 18 hours, 35° C.
Protocol: as §1

[16] = tested on: Pseudomonas aeruginosa CMC 83-20; conditions: CMC8320, Mueller-Hinton agar, 10^4 CFU, 18 hours, 35° C.
Protocol: as §1

[17] = tested on: Streptococcus faecalis UCI 85-30; conditions: Enterococcus faecalis, UCI8530, Mueller-Hinton agar, 10^4 CFU, 18 hours, 35° C.
Protocol: as §1

[18] = tested on: Enterobacter cloacae VGH 84-39; conditions: VGH8439, Mueller-Hinton agar, 10^4 CFU, 18 hours, 35° C.
Protocol: as §1

[19] = tested on: Klebsiella neumoniae CMC 84-31; conditions: CMC8431, Mueller-Hinton agar, 10^4 CFU, 18 hours, 35° C.
Protocol: as §1

[20] = tested on: Moranella morganii VGH 84-12; conditions: Mueller-Hinton agar, 10^4 CFU, 18 hours, 35° C.
Protocol: as §1

[21] = tested on: Citrobacter diversus K 82-24; conditions: Citrobacter koseri, K8224, Mueller-Hinton agar, 10^4 CFU, 18 hours, 35° C.
Protocol: as §1

[22] = tested on: Klebsiella neumoniae MOR 84-24; conditions: MOR8424, Mueller-Hinton agar, 10^4 CFU, 18 hours, 35° C.
Protocol: as §1

[23] = tested on: Escherichia coli MOR 84-20; conditions: MOR8420, Mueller-Hinton agar, 10^4 CFU, 18 hours, 35° C.
Protocol: as §1

[24] = tested on: Moranella morganii CMC 84-38; conditions: Mueller-Hinton agar, 10^4 CFU, 18 hours, 35° C.
Protocol: as §1

[25] = tested on: Providencia stuartii CMC 83-3; conditions: CMC833, Mueller-Hinton agar, 10^4 CFU, 18 hours, 35° C.
Protocol: as §1

[26] = tested on: Staphylococcus aureus K 82-26; conditions: K8226, Mueller-Hinton agar, 10^4 CFU, 18 hours, 35° C.
Protocol: as §1

[27] = tested on: Enterobacter cloacae MOR 84-30; conditions: MOR8430, Mueller-Hinton agar, 10^4 CFU, 18 hours, 35° C.
Protocol: as §1

[28] = tested on: Escherichia coli ATCC 25922; conditions: Escherichia coli, ATCC25922, 18 h, Table I; Escherichia coli ATCC 25922; Mueller-Hinton agar, 10^4 CFU, 18 hours, 35° C.; read-out: MIC
Protocol: as §1

[29] = tested on: Pseudomonas aeruginosa VGH 84-3; conditions: VGH843, Mueller-Hinton agar, 10^4 CFU, 18 hours, 35° C.
Protocol: as §1

| Compound | MIC [1] [µg/mL] | MIC [2] [µg/mL] | MIC [3] [µg/mL] | MIC [4] [µg/mL] | MIC [5] [µg/mL] | MIC [6] [µg/mL] | MIC [7] [µg/mL] | MIC [8] [µg/mL] | MIC [9] [µg/mL] | MIC [10] [µg/mL] | MIC [11] [µg/mL] | MIC [12] [µg/mL] | MIC [13] [µg/mL] | MIC [14] [µg/mL] | MIC [15] [µg/mL] | MIC [16] [µg/mL] | MIC [17] [µg/mL] | MIC [18] [µg/mL] | MIC [19] [µg/mL] | MIC [20] [µg/mL] | further results |
| --- | --- | --- | --- | --- | --- | --- | --- | --- | --- | --- | --- | --- | --- | --- | --- | --- | --- | --- | --- | --- | --- |
| N[C@H]1CCCC[C@H]1Nc1cc2c(cc1F)c(=O)c(C(=O)O)cn2C1CC1 (relative stereo) [Example 1, Cis-7-[(2-Aminocyclohexyl)amino]1-cyclopropyl-6-fluoro-1,4-dihydro-4-oxo-3-quinolinecarboxylic acid] | 16 (≈ 44.5 µM) | 4 (≈ 11.1 µM) | 2 (≈ 5.56 µM) | 0.5 (≈ 1.39 µM) | 4 (≈ 11.1 µM) | 8 (≈ 22.3 µM) | 0.25 (≈ 0.696 µM) | 2 (≈ 5.56 µM) | 1 (≈ 2.78 µM) | 1 (≈ 2.78 µM) | 2 (≈ 5.56 µM) | 0.5 (≈ 1.39 µM) | 1 (≈ 2.78 µM) | 4 (≈ 11.1 µM) | 0.5 (≈ 1.39 µM) | 4 (≈ 11.1 µM) | 4 (≈ 11.1 µM) | 0.5 (≈ 1.39 µM) | 1 (≈ 2.78 µM) | 1 (≈ 2.78 µM) | MIC [21]: 0.25 µg/mL (≈ 0.696 µM); MIC [22]: 1 µg/mL (≈ 2.78 µM); MIC [23]: 0.25 µg/mL (≈ 0.696 µM); MIC [24]: 1 µg/mL (≈ 2.78 µM); MIC [25]: > 16 µg/mL; MIC [26]: 2 µg/mL (≈ 5.56 µM); MIC [27]: 1 µg/mL (≈ 2.78 µM); MIC [28]: 0.25 µg/mL (≈ 0.696 µM); MIC [29]: > 16 µg/mL |
| N[C@H]1CCC[C@H]1Nc1cc2c(cc1F)c(=O)c(C(=O)O)cn2C1CC1 (relative stereo) [Example 2, Cis-7-[(2-Aminocyclopentyl)amino]-1-cyclopropyl-6-fluoro-1,4-dihydro-4-oxo-3-quinolinecarboxylic acid] | > 16 | > 16 | 4 (≈ 11.6 µM) | 2 (≈ 5.79 µM) | > 16 | 16 (≈ 46.3 µM) | 1 (≈ 2.9 µM) | 4 (≈ 11.6 µM) | 2 (≈ 5.79 µM) | 2 (≈ 5.79 µM) | 4 (≈ 11.6 µM) | 1 (≈ 2.9 µM) | 0.5 (≈ 1.45 µM) | > 16 | 1 (≈ 2.9 µM) | 8 (≈ 23.2 µM) | > 16 | 1 (≈ 2.9 µM) | 2 (≈ 5.79 µM) | 4 (≈ 11.6 µM) | MIC [21]: 0.5 µg/mL (≈ 1.45 µM); MIC [22]: 1 µg/mL (≈ 2.9 µM); MIC [23]: 0.5 µg/mL (≈ 1.45 µM); MIC [24]: 1 µg/mL (≈ 2.9 µM); MIC [25]: > 16 µg/mL; MIC [26]: 4 µg/mL (≈ 11.6 µM); MIC [27]: 2 µg/mL (≈ 5.79 µM); MIC [28]: 0.5 µg/mL (≈ 1.45 µM); MIC [29]: > 16 µg/mL |
